Tested on: Hs578T
Conditions: 72 h
Summary of the method: (§1)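 The plates used were 384-well plates holding compound at 5 concentrations in 10-fold steps across a compound-specific 10,000-fold range, into which breast cancer cell lines were seeded in 20 µl suspension. Following 72 h incubation, CellTox Green fluorescence was read at 485/520 nm, and CellTiter-Glo luminescence was read after 10 min at room temperature. Normalisation on each plate used 0.1 % DMSO and a positive kill control. Dose-response curves gave the EC50, which was censored at the top concentration.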

Structure (SMILES)	EC50, CellTiter-Glo [nM]
CC1=C(/C=C/C(C)=C/C=C/C(C)=C/C(=O)O)C(C)(C)CCC1 [Tretinoin]	6610
Nc1ccccc1NC(=O)c1ccc(CNC(=O)OCc2cccnc2)cc1 [Entinostat]	1550
C=CC(=O)Nc1cc2c(Nc3ccc(F)c(Cl)c3)ncnc2cc1OCCCN1CCOCC1 [Canertinib]	5450
CCCCC(=O)OCC(=O)[C@]1(O)Cc2c(O)c3c(c(O)c2[C@@H](O[C@H]2C[C@H](NC(=O)C(F)(F)F)[C@H](O)[C@H](C)O2)C1)C(=O)c1c(OC)cccc1C3=O [Valrubicin]	944

Tested on: CAL-148
Conditions: 72 h
Summary of the method: as §1

Structure (SMILES)	EC50, CellTiter-Glo [nM]
C=CCc1cccc(/C=N/NC(=O)CN2CCN(Cc3ccccc3)CC2)c1O [PAC-1]	6670
CC[C@@H]1C(=O)N(C)c2cnc(Nc3ccc(C(=O)NC4CCN(C)CC4)cc3OC)nc2N1C1CCCC1 [BI 2536]	3.14
CC[C@H](C)C(=O)O[C@H]1C[C@H](O)C=C2C=C[C@H](C)[C@H](CC[C@@H](O)C[C@@H](O)CC(=O)O)[C@H]21 [Pravastatin]	6540
O=C(/C=C/c1cccnc1)NCCCCC1CCN(C(=O)c2ccccc2)CC1 [Daporinad]	81
CC1=C(/C=C/C(C)=C/C=C/C(C)=C/C(=O)O)C(C)(C)CCC1 [Tretinoin]	354
Nc1ccccc1NC(=O)c1ccc(CNC(=O)OCc2cccnc2)cc1 [Entinostat]	2560
C=CC(=O)Nc1cc2c(Nc3ccc(F)c(Cl)c3)ncnc2cc1OCCCN1CCOCC1 [Canertinib]	1390
CCCCC(=O)OCC(=O)[C@]1(O)Cc2c(O)c3c(c(O)c2[C@@H](O[C@H]2C[C@H](NC(=O)C(F)(F)F)[C@H](O)[C@H](C)O2)C1)C(=O)c1c(OC)cccc1C3=O [Valrubicin]	322

Tested on: MDA-MB-453
Conditions: 72 h
Summary of the method: as §1

Structure (SMILES)	EC50, CellTiter-Glo [nM]
CC[C@@H]1C(=O)N(C)c2cnc(Nc3ccc(C(=O)NC4CCN(C)CC4)cc3OC)nc2N1C1CCCC1 [BI 2536]	2.55
Cc1cnc(NC(=O)Nc2cc(Br)c(C)cc2OC[C@@H]2CNCCO2)cn1 [Rabusertib]	219
COc1cc2nccc(Oc3ccc(NC(=O)Nc4cc(C)on4)c(Cl)c3)c2cc1OC [Tivozanib]	5050
CC1=C(/C=C/C(C)=C/C=C/C(C)=C/C(=O)O)C(C)(C)CCC1 [Tretinoin]	3230
CCCCC(=O)OCC(=O)[C@]1(O)Cc2c(O)c3c(c(O)c2[C@@H](O[C@H]2C[C@H](NC(=O)C(F)(F)F)[C@H](O)[C@H](C)O2)C1)C(=O)c1c(OC)cccc1C3=O [Valrubicin]	3050

Now from value to compound:

EC50, CellTiter-Glo [nM]	Structure (SMILES)
2610	C=CCc1cccc(/C=N/NC(=O)CN2CCN(Cc3ccccc3)CC2)c1O [PAC-1]
2.71	O=C(/C=C/c1cccnc1)NCCCCC1CCN(C(=O)c2ccccc2)CC1 [Daporinad]
2160	Nc1ccccc1NC(=O)c1ccc(CNC(=O)OCc2cccnc2)cc1 [Entinostat]
3020	C=CC(=O)Nc1cc2c(Nc3ccc(F)c(Cl)c3)ncnc2cc1OCCCN1CCOCC1 [Canertinib]

Tested on: BT-474
Conditions: 72 h
Summary of the method: as §1

Structure (SMILES)	EC50, CellTiter-Glo [nM]
CC[C@@H]1C(=O)N(C)c2cnc(Nc3ccc(C(=O)NC4CCN(C)CC4)cc3OC)nc2N1C1CCCC1 [BI 2536]	6.44
CC[C@H](C)C(=O)O[C@H]1C[C@H](O)C=C2C=C[C@H](C)[C@H](CC[C@@H](O)C[C@@H](O)CC(=O)O)[C@H]21 [Pravastatin]	2340
Nc1nc2[nH]cc(CCc3ccc(C(=O)N[C@@H](CCC(=O)O)C(=O)O)cc3)c2c(=O)[nH]1 [Pemetrexed]	408
CC[C@H](Nc1ncnc2[nH]cnc12)c1nc2cccc(F)c2c(=O)n1-c1ccccc1 [GS-1101]	2950
CCCCC(=O)OCC(=O)[C@]1(O)Cc2c(O)c3c(c(O)c2[C@@H](O[C@H]2C[C@H](NC(=O)C(F)(F)F)[C@H](O)[C@H](C)O2)C1)C(=O)c1c(OC)cccc1C3=O [Valrubicin]	2640

The next lines start with the values.

EC50, CellTiter-Glo [nM]	Structure (SMILES)
3910	C=CCc1cccc(/C=N/NC(=O)CN2CCN(Cc3ccccc3)CC2)c1O [PAC-1]
40.8	O=C(/C=C/c1cccnc1)NCCCCC1CCN(C(=O)c2ccccc2)CC1 [Daporinad]
> 10000	CCc1cncnc1N1CCN(Cc2nc3ccc(C(F)(F)F)cc3[nH]2)CC1
7640	Nc1ccccc1NC(=O)c1ccc(CNC(=O)OCc2cccnc2)cc1 [Entinostat]
2600	C=CC(=O)Nc1cc2c(Nc3ccc(F)c(Cl)c3)ncnc2cc1OCCCN1CCOCC1 [Canertinib]

Tested on: BT-549
Conditions: 72 h
Summary of the method: as §1

Structure (SMILES)	EC50, CellTiter-Glo [nM]
Nc1nc(F)nc2c1ncn2[C@@H]1O[C@H](CO)[C@@H](O)[C@@H]1O [Fludarabine]	5920
CC[C@@H]1C(=O)N(C)c2cnc(Nc3ccc(C(=O)NC4CCN(C)CC4)cc3OC)nc2N1C1CCCC1 [BI 2536]	4.82
CC[C@H](C)C(=O)O[C@H]1C[C@H](O)C=C2C=C[C@H](C)[C@H](CC[C@@H](O)C[C@@H](O)CC(=O)O)[C@H]21 [Pravastatin]	2640
CC[C@H](Nc1ncnc2[nH]cnc12)c1nc2cccc(F)c2c(=O)n1-c1ccccc1 [GS-1101]	4670
CCCCC(=O)OCC(=O)[C@]1(O)Cc2c(O)c3c(c(O)c2[C@@H](O[C@H]2C[C@H](NC(=O)C(F)(F)F)[C@H](O)[C@H](C)O2)C1)C(=O)c1c(OC)cccc1C3=O [Valrubicin]	794

More lines, now with the values ahead:

EC50, CellTiter-Glo [nM]	Structure (SMILES)
1230	C=CCc1cccc(/C=N/NC(=O)CN2CCN(Cc3ccccc3)CC2)c1O [PAC-1]
925	Nc1ccccc1NC(=O)c1ccc(CNC(=O)OCc2cccnc2)cc1 [Entinostat]
2110	C=CC(=O)Nc1cc2c(Nc3ccc(F)c(Cl)c3)ncnc2cc1OCCCN1CCOCC1 [Canertinib]

Tested on: SK-BR-3
Conditions: 72 h
Summary of the method: as §1

EC50, CellTiter-Glo [nM]	Structure (SMILES)
5200	C=CCc1cccc(/C=N/NC(=O)CN2CCN(Cc3ccccc3)CC2)c1O [PAC-1]
2.39	CC[C@@H]1C(=O)N(C)c2cnc(Nc3ccc(C(=O)NC4CCN(C)CC4)cc3OC)nc2N1C1CCCC1 [BI 2536]
3820	CC[C@H](C)C(=O)O[C@H]1C[C@H](O)C=C2C=C[C@H](C)[C@H](CC[C@@H](O)C[C@@H](O)CC(=O)O)[C@H]21 [Pravastatin]
